Results on three compounds are retold here after patent US20090191177A1, “Enantiomerically Pure (-) 2-[1-(7-methyl-2-(morpholin-4-yl)-4-oxo-4H-pyrido[1,2-A]pyrimidin-9-yl)ethylamino]benzoic Acid, Its Use In Medical Therapy, And A Pharmaceutical Composition Comprising It - 026” (priority 2008, published 2009).

What is called IC50 is the concentration that inhibits the measured activity by half.

The test relates to washed platelets. As to the kind of experiment: Washed Platelet Aggregation (WPA), CD9 antibody-induced. Type of test: cell-based. The conditions noted are these: washed platelets from healthy volunteers, aggregation induced by mouse anti-human CD9 antibody. The procedure:
Blood was collected from healthy volunteers by venipuncture using a Venflon needle 1.5*45 mm (17 GA, 1.77 IN). The first 2 ml of blood was discarded prior to collecting aliquotes into tubes containing acid citrate dextrose (ACD). One volume of ACD is required for six volumes of blood.
The anticoagulated blood was centrifuged for 15 min at 240×g to obtain platelet rich plasma (PRP). PRP was transferred to a new tube and centrifuged for 15 min at 2200×g. The supernatant was discarded and the platelet pellet re-suspended to […] in Tyrodes buffer (TB) containing 1 μM hirudin and 0.02 U/mL apyrase. The platelet suspension was left to rest at room temperature for 30 min. Just prior to time for assay, CaCl2 was added to a final concentration of 2 mM. The Compound, or wortmannin, was dissolved in DMSO and added to a 96 well plate prior to the addition of the washed platelet suspension. The platelet suspension was preincubated with inhibitor for 5 min. Light absorption at 650 nm was recorded before and after a 5 min plate shake and referred to as recording 0 (R0) and R1. A mouse anti-human CD9 antibody was added (at a donor specific concentration) to each well prior to next 10 min plate shake and light absorption recording; R2.
A concentration response for CD9 antibody-induced aggregation in the absence or presence of 1 μM wortmannin (complete PI3K inhibition) was performed in each washed platelet suspension prior to testing of the Compound. The CD9 antibody concentration with the largest dependence of PI3K inhibition was chosen for the test.
Light absorbance in wells with TB were subtracted from all readings before percent aggregation was calculated according the formula: [(R1−R2)/R1]×100=% aggregation. Spontaneous aggregation or pro-aggregatory effect of the inhibitor was evaluated by the same formula, [(R0−R1)/R0]×100=% aggregation.

SMILES strings stand for the structures.

In turn, `Cc1cc(C(C)Nc2ccccc2C(=O)O)c2nc(N3CCOCC3)cc(=O)n2c1` (racemic) [WO2004016607, 2-[1-(7-Methyl-2-(morpholin-4-yl)-4-oxo-4H-pyrido[1,2-α]pyrimidin-9-yl)ethylamino]benzoic acid, reference compound] gave a half-inhibitory concentration (IC50) (Homo sapiens, Platelet) of 10 nM.

In turn, `Cc1cc(C(C)Nc2ccccc2C(=O)O)c2nc(N3CCOCC3)cc(=O)n2c1` (single isomer, unassigned; (+)) [Ex. 2, (+) 2-[1-(7-Methyl-2-(morpholin-4-yl)-4-oxo-4H-pyrido[1,2-a]pyrimidin-9-yl)ethylamino]benzoic acid] had a concentration for half-maximal inhibition (IC50) of 1650 nM.

For `Cc1cc(C(C)Nc2ccccc2C(=O)O)c2nc(N3CCOCC3)cc(=O)n2c1` (single isomer, unassigned; (-)) [Ex. 1, (−) 2-[1-(7-Methyl-2-(morpholin-4-yl)-4-oxo-4H-pyrido[1,2-a]pyrimidin-9-yl)ethylamino]benzoic acid], the IC50 stood at 6 nM.
